{
  "source": "patent US20070066584A1",
  "about": "“Amido compounds and their use as pharmaceuticals” (priority 2005, published 2007)",
  "origin": "cited, not measured here",
  "biological_target": "T1, 11βHSD1 (Homo sapiens, UniProt P28845)",
  "T1 construct": "host or cells: healthy volunteers (eye; non-pigmented epithelial cells), in vivo",
  "T1 sequence (P28845 whole entry)": "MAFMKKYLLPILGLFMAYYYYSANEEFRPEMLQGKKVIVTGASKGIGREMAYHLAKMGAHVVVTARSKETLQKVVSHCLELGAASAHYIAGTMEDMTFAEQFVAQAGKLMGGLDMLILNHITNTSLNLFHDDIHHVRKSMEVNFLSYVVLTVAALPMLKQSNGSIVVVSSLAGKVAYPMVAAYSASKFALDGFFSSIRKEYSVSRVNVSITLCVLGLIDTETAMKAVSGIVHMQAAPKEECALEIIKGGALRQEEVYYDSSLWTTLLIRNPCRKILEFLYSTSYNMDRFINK",
  "conditions": "healthy volunteers; after seven days of carbenoxolone treatment",
  "data": [
    {"smiles": "CC1(C)[C@@H](OC(=O)CCC(=O)O)CC[C@]2(C)[C@H]3C(=O)C=C4[C@@H]5C[C@@](C)(C(=O)O)CC[C@]5(C)CC[C@@]4(C)[C@]3(C)CC[C@@H]12", "note": "[carbenoxolone]", "values": [
      {"measurement": "IOP reduced", "result": 18, "unit": "%"}
    ]}
  ]
}
